Measured values: patent US20240327471A1, “IL-10 INDUCING POLYPEPTIDES AND USES THEREOF” (ENTEROME S.A., priority 2021, published 2024)

Tests used:
monocytes = assay: Kinetics of IL-10, TNF-α and IL-6 secretion from monocytes co-stimulated with LPS (AlphaLISA); assay type: cell-based, human; settings: 1 μM, LPS 10 ng/ml
Description: To confirm the anti-inflammatory potential of NAT_29 (SEQ ID NO: 1), a kinetic study was performed to test the concomitant secretion of IL-10 and the major pro-inflammatory cytokines TNF-α and IL-6. To this end, monocytes were obtained as described in Example 3 and stimulated with 1 μM NAT_29 polypeptide (SEQ ID NO: 1), co-stimulated with 10 ng/ml of LPS from E. coli O111: B4 (InvivoGen, tlrl-eblps) and placed in humidified CO2 incubator at 5% CO2/37° C. for 72 h. IL-10, TNF-α and IL-6 secretion were measured at 5, 10, 24, 48 and 72 hours by AlphaLISA® on cell supernatants according to the supplier's protocol (Perkin, ref. AL218F, AL208F, AL223F) and read on an Envision plate reader (Perkin Elmer).

TNBS-induced colitis = assay: Acute colitis induced by TNBS in rats (Wallace score, colon Lipocalin-2, mortality); assay type: in vivo, Sprague-Dawley rats; settings: intrarectal; for Wallace score: once a day, evaluated 4 days after TNBS
Excerpt: Next, anti-inflammatory properties of the NAT_29 polypeptide (SEQ ID NO: 1) have been evaluated in the 2,4,6-trinitrobenzene sulfonic acid (TNBS)-induced colitis model. The model of colitis induced by TNBS in rats is a validated animal model to evaluate the anti-inflammatory properties of drugs in intestinal bowel diseases (IBD). TNBS induces deep inflammation resulting in necrosis (with transmural destruction of the intestine wall) of the colon. This model is well-characterized, reliable, reproducible, and admitted by regulatory authorities in IBD (e.g., as described in Antoniou, E., et al. (2016). The TNBS-induced colitis animal model: An overview. Annals of medicine and surgery, vol. 11, 9-15, which is incorporated herein in its entirety).
To this end, the NAT_29 polypeptide (SEQ ID NO: 1) was administered by intrarectal instillation at two different concentrations (1 and 0.1 μM) in the model of acute colitis induced by TNBS (intrarectal administration at 80 mg/kg) in Sprague-Dawley rats. The anti-inflammatory effects were evaluated at the macroscopic level using validated score of Wallace and compared to those induced by the positive control (5-ASA) administered also by intrarectal instillation.
Resolution of inflammation was also evaluated using colon Lipocalin-2 (Lcn-2) quantification. Lipocalin-2, also known as neutrophil gelatinase-associated lipocalin (NGAL), is considered as a clinically relevant biomarker of IBD. […] In rodent models of colitis, a strong association has been shown between elevated levels of Lcn-2 and colitis severity.
Male Sprague-Dawley rats (Body weight: around 100-150 g) were allocated randomly and blindly 4 per cage and acclimated for one week. Rats were obtained from Janvier Laboratoires, Le Genest Saint-Isle, France.
The tested products were administered once a day by intrarectal instillation (500μl) in a prophylactic and therapeutic mode starting at day -5, i.e. 5 days before colitis induction (DO) and until euthanasia at D4, corresponding to 9 treatment days in total.
For colitis induction, Sprague Dawley rats were anesthetized for 2 hours using a subcutaneous injection of xylazine at 12.5 mg/kg/ketamin at 25 mg/kg. […] The TNBS solution at 80 mg/kg was prepared based on the mean body weight of rats, which is recorded before the TNBS solution preparation.
NAT_29 was solubilized in PBS and the active concentration for animal treatment was calculated assuming a maximum volume of colon-rectum content in rat of 3.5ml. […]
Animals were sacrificed 4 days (D4) after TNBS administration (DO) for evaluation of the intensity of colitis. Samples from distal colon were collected and used for macroscopic assessments and lipocalin quantification. […]

## KKGSRSCFFIYLDRGTKKGSRSCFFYLP (NAT_29) [28-amino-acid fragment of microbiota protein ID3166]
monocytes; 5, 10, 24, 48 and 72 hours
  IL-6 secretion: no significant secretion
  TNF-a secretion: no significant secretion
monocytes; peak at 24 h, mean of six monocyte donors
  IL-10 secretion, fold in respect to LPS, peak: 2 fold
monocytes; until the end of the experiment (72 h)
  IL-10 secretion, fold in respect to LPS, after peak: 1,5 Fold
TNBS-induced colitis; final concentration of 0.1 μM
  Wallace score: protective effect (albeit not significant)
TNBS-induced colitis; final concentration of 0.1 μM, 4 days after TNBS
  lipocalin-2 level in the colon (ELISA): slight decrease of lipocalin-2 level (albeit not significant)
TNBS-induced colitis; final concentration of 1 μM
  Wallace score: statistically protective effect
TNBS-induced colitis; final concentration of 1UM, 4 days after TNBS
  Lipocalin levels in the colon (ELISA): significant decrease of Lipocalin levels
